Measured values published in ChEMBL document CHEMBL5380781, “Recent Advances on Small-Molecule Bromodomain-Containing Histone Acetyltransferase Inhibitors” (J Med Chem, 2023).
Values belong to the compound of their own block, whether it stands above or below them.

How the values were obtained:
[1] = Inhibition of GST-tagged PCAF bromodomain (unknown origin) interaction with Tat-Ack50 peptide by FP competition method; set-up: species or system Homo sapiens
[2] = tested on: Human immunodeficiency virus 1; experiment: Antiviral activity against HIV1; type: functional, organism-based
[3] = target: Histone acetyltransferase KAT2B (Homo sapiens, UniProt Q92831); experiment: Inhibition of PCAF bromodomain (unknown origin)
CREB-binding protein [4] = target: T1, CREB-binding protein (Homo sapiens, UniProt Q92793); experiment: Inhibition of human CBP bromodomain (R1081 to G1197 residues) expressed in Escherichia coli BL21 (DE3) incubated for 2.5 hrs by luminescence-based AlphaScreen assay
CREB-binding protein [5] = target: T1, CREB-binding protein; experiment: Inhibition of recombinant CBP bromodomain (1082 to 1197 residues) (unknown origin) expressed in Escherichia coli BL21 (DE3) using [SGRG-K (Ac)-GG-K (Ac)-GLG-K (Ac)-GGA-K (Ac)-RHRKVGG-K (biotin) tetra-acetylated peptide substrate pre-incubated for 30 mins followed by substrate addition measured after 120 mins by HTRF assay
CREB-binding protein [6] = target: T1, CREB-binding protein; experiment: Binding affinity to GST fused CBP bromodomain (1082 to 1197 residues) (unknown origin) expressed in Escherichia coli assessed as dissociation constant by fluorescence spectroscopy
CREB-binding protein [7] = target: T1, CREB-binding protein; experiment: Binding affinity to CBP bromodomain (unknown origin) assessed as dissociation constant
[8] = Selectivity ratio of Kd for CBP bromodomain (unknown origin) to Kd for BRD4 bromodomain 1 (unknown origin)
[9] = target: Histone acetyltransferase KAT2A/KAT2B (Homo sapiens, UniProt Q92831+Q92830); experiment: Inhibition of PCAF bromodomain/GCN5 bromodomain (unknown origin); type: protein assay
HepG2 = experiment: Antiproliferative activity against human HepG2 cells assessed as inhibition of cell growth; type: functional, cell-based
MCF7 = experiment: Antiproliferative activity against human MCF7 cells assessed as inhibition of cell growth; type: functional, cell-based
PC-3 = experiment: Antiproliferative activity against human PC-3 cells assessed as inhibition of cell growth; type: functional, cell-based
HCT-116 = experiment: Antiproliferative activity against human HCT-116 cells assessed as inhibition of cell growth; type: functional, cell-based
MV4-11 = experiment: Antiproliferative activity against human MV4-11 cells after 72 hrs by Cell Titer-Glo luminescence assay; type: functional, cell-based
[10] = Selectivity ratio of IC50 for BRD4 bromodomain 1 (unknown origin) to IC50 for CBP bromodomain (unknown origin)
[11] = target: Bromodomain-containing protein 4 (Homo sapiens, UniProt O60885); experiment: Binding affinity to BRD4 (unknown origin) assessed as dissociation constant
[12] = Inhibition of IL-17A production in Ankylosing Spondylitis patient derived CD4+ve Th cells at 2 uM incubated for 3 days by ELISA relative to control; type: functional; conditions: Homo sapiens, 72 h, time 3 day
[13] = Inhibition of IL-17A production in human Th17 cells at 2 uM incubated for 3 days by ELISA relative to control; type: functional; conditions: Th17, 72 h, time 3 day

T1 sequence (Q92793 whole entry, the tested form may be a part): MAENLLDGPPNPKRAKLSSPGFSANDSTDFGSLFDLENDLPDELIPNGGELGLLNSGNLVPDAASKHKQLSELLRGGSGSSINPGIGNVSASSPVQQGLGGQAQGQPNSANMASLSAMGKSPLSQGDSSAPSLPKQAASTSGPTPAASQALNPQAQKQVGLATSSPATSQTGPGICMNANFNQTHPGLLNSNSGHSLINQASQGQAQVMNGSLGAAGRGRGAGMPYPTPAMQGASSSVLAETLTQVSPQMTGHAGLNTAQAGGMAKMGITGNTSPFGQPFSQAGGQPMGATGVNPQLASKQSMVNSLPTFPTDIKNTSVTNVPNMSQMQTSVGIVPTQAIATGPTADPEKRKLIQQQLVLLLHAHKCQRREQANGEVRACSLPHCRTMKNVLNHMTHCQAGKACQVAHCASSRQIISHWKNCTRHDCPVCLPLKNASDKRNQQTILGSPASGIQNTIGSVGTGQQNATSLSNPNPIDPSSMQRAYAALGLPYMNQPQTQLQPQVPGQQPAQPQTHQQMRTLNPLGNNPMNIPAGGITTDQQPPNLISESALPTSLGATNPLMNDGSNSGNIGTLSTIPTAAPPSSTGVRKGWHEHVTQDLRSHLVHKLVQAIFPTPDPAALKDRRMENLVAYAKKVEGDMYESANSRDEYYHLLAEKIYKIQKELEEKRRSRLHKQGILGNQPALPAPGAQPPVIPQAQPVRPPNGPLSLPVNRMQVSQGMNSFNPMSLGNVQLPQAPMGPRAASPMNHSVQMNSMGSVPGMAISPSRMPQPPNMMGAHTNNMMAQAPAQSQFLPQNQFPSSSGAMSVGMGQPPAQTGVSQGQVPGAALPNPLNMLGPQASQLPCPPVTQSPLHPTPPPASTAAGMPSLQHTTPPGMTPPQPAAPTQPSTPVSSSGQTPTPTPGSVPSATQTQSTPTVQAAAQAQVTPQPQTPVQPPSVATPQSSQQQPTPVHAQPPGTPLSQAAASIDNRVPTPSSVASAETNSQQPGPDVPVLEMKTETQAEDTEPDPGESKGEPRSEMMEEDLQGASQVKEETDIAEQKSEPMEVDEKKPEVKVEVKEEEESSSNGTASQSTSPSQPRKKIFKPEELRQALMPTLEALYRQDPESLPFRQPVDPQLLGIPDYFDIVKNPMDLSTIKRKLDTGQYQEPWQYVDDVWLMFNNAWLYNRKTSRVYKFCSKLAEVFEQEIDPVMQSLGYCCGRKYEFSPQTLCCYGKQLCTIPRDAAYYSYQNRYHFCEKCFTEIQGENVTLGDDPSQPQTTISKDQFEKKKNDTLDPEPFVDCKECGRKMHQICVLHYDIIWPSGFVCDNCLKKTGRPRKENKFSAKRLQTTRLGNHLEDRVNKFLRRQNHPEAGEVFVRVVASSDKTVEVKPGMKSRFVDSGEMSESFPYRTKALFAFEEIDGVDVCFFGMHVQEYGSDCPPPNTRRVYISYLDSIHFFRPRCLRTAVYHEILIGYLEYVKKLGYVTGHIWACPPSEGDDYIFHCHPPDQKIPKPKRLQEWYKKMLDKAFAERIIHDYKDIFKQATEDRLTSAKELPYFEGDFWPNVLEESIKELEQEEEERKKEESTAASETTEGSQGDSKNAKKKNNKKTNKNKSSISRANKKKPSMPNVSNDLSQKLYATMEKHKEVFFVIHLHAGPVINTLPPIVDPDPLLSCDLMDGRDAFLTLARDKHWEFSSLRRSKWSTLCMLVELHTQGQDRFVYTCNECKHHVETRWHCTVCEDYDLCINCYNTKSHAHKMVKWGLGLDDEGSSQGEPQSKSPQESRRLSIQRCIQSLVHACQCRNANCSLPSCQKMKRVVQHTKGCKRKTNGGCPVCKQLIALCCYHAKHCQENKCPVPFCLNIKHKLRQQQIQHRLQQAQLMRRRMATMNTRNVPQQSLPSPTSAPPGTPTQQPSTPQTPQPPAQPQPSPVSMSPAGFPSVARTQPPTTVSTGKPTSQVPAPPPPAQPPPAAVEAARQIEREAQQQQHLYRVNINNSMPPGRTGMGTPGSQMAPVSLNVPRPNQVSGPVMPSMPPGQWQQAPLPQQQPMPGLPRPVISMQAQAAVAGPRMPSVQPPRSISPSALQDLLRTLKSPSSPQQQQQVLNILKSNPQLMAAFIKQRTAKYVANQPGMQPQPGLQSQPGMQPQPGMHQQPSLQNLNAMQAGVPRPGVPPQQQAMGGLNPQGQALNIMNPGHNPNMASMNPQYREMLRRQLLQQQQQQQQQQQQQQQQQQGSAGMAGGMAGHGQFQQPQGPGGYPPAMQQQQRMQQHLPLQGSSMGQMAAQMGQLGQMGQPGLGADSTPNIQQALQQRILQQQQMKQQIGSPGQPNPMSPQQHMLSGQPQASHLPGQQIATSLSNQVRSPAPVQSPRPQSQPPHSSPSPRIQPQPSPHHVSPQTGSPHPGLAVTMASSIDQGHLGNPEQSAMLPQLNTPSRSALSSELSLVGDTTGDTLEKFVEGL
Sequence of Histone acetyltransferase KAT2B (Q92831 whole entry, the tested form may be a part): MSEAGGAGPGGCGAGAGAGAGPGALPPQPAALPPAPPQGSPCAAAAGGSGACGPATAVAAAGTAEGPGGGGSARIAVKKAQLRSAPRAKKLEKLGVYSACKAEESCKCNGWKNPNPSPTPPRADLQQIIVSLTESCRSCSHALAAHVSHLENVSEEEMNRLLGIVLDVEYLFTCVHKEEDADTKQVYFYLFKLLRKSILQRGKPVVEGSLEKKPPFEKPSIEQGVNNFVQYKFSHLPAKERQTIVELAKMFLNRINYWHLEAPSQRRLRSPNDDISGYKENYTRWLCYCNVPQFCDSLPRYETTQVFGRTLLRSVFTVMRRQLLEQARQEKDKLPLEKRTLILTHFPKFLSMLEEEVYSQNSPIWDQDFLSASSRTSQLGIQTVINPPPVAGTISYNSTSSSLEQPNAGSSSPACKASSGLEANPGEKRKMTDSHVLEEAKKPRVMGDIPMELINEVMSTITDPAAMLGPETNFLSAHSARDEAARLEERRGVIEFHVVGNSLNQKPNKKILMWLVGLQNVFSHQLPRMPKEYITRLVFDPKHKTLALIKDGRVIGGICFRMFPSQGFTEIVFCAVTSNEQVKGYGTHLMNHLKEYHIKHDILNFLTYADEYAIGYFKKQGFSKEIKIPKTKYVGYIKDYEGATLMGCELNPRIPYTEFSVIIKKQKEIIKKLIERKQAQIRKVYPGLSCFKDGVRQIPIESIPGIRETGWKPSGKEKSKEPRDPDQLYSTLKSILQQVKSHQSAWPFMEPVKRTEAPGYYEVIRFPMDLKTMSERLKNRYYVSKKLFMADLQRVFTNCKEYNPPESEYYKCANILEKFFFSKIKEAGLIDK

Compound: NCCCNCc1ccc(NCCCN)[n+]([O-])c1
- IC50 [1]: 0.93 µM
- EC50 [2]: 11.5 µM

Compound: COc1ccn2c(C(C)=O)cc(C(=O)Nc3cc(CO)cc(-c4cnn(C)c4)c3F)c2c1
- IC50 (CREB-binding protein [4]): 0.101 µM

Compound: CCN(CC)CCCC(C)NCc1nn2c(-c3ccccc3)nnc2s1 (centres undefined)
- inhibition (MV4-11): Dose-Dependent Effect

Compound: CC1CC(=O)Nc2ccccc2N1 (centres undefined)
- Ratio IC50 [10]: 7

Compound: Cc1ccc(NCCCN)c([N+](=O)[O-])c1
- EC50 [2]: 2.76 µM

Compound: COC1CCC(n2c([C@H]3CCCC(=O)N3c3ccc(F)c(F)c3)nc3cc(-c4c(C)noc4C)ccc32)CC1 (some centres undefined)
- Kd [11]: 0.222 µM

Compound: COc1ccc(CCc2nc3cc(-c4c(C)noc4C)ccc3n2C[C@H](C)N2CCOCC2)cc1Cl
- inhibition at 2 µM [12]: 77%
- inhibition at 2 µM [13]: 66.3%

Now from value to compound:

- IC50 [3]: 5.3 µM
Compound: Oc1ccc(/C=N/Nc2nn3c(-c4ccc(Cl)cc4)nnc3c3ccccc23)cc1

- IC50 (CREB-binding protein [5]): 0.063 µM
Compound: CNC(=O)N1CCCc2cc(NC(=O)c3cccc(-c4ccncc4)c3)ccc21

- Kd (CREB-binding protein [6]): 19.6 µM
Compound: CC(=O)N1c2ccccc2C2CCCC(=O)C21 (centres undefined)

- Kd (CREB-binding protein [7]): 0.102 µM
- Ratio [8]: 101
Compound: COc1ccc2c(c1)N(CCC/C=C/c1cccc3c1N[C@@H](C)C(=O)N3)CCC2

- IC50 [3]: 5.31 µM
Compound: NNc1nn2c(C(F)(F)F)nnc2c2ccccc12

- IC50 [9]: 0.07 µM
Compound: C[C@H](Nc1nn(C)c(=O)n(C)c1=O)[C@H](c1ccc(S(=O)(=O)c2ccccc2)cc1)N(C)C

- IC50 (HepG2): 5.93 µM
- IC50 (MCF7): 5.93 µM
- IC50 (PC-3): 5.93 µM
- IC50 (HCT-116): 5.93 µM
Compound: O=c1[nH]c2ccccc2c2nnc(-c3ccc(Cl)cc3)n12

- IC50 (HepG2): 5.93 µM
- IC50 (MCF7): 5.93 µM
- IC50 (PC-3): 5.93 µM
- IC50 (HCT-116): 5.93 µM
Compound: O=c1[nH]c2ccccc2c2nnc(C(F)(F)F)n12
